ChEMBL document CHEMBL1201862, “PubChem BioAssay data set” (2004)
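Protocol summary: plate cells (96-well), add compound at 5 concentrations, incubate 48 h, interpolate endpoints linearly. GI50 is the concentration that inhibits growth by half.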 The source made the active and inactive calls. No stated cut-off is given here; in the data, active = GI50 up to about 1.1 µM and inactive = higher. *1 amine or outer side, *2 acyl side, *3 side chain or, on linkers, in order; H or OH if unused. Where a SMILES comes first, the peptide text is derived from it. [ ]: non-standard residue; d: D form. The star is where a group is joined. X31 = CC(=O)N(C)SCC(N[*:1])C(=O)[*:2]; Fmoc = O=C(OCC1c2ccccc2-c2ccccc21)*; For = O=C*

Key:
Experiment in all cases: DTP human tumour cell line panel, 48 h
[1] = test system: SF-268
[2] = test system: COLO 205
[3] = test system: SR
[4] = test system: HOP-62
[5] = test system: NCI/ADR-RES
[6] = test system: HOP-92
[7] = test system: NCI-H522
[8] = test system: SF-539
[9] = test system: HCC 2998
[10] = test system: A549
[11] = test system: OVCAR-3
[12] = test system: HCT-116
[13] = test system: CAKI-1
[14] = test system: Hs-578T
[15] = test system: U-251
[16] = test system: BT-549
[17] = test system: A498
[18] = test system: OVCAR-5
[19] = test system: NCI-H226

SMILES | GI50 [1] | GI50 [2] | GI50 [3] | GI50 [4] | GI50 [5] | GI50 [6] | GI50 [7] | GI50 [8] | GI50 [9] | GI50 [10] | GI50 [11] | GI50 [12] | GI50 [13] | GI50 [14] | GI50 [15] | GI50 [16] | GI50 [17] | GI50 [18] | GI50 [19]
Cc1nn(-c2ccccc2)c2c1N=C(C(=O)O)CC(c1ccccc1)=N2 | > 10 µM (inactive) | > 10 µM (inactive) | > 10 µM (inactive) | > 10 µM (inactive) | > 10 µM (inactive) | > 10 µM (inactive) | > 10 µM (inactive) | > 10 µM (inactive) | > 10 µM (inactive) | > 10 µM (inactive) | > 10 µM (inactive) | > 10 µM (inactive) | > 10 µM (inactive) | > 10 µM (inactive) | > 10 µM (inactive) | > 10 µM (inactive) |  |  | 
COC(=O)Nc1nc2cc(S(=O)(=O)Nc3ccccn3)ccc2[nH]1 | 72.6 µM (inactive) | 32.7 µM (inactive) | 21.1 µM (inactive) | 73.3 µM (inactive) | 34.1 µM (inactive) | 30.5 µM (inactive) | 45.2 µM (inactive) | 22.7 µM (inactive) |  | 80.7 µM (inactive) | 32.4 µM (inactive) | 49.9 µM (inactive) | 47 µM (inactive) | 35.6 µM (inactive) | 67.5 µM (inactive) | 30.9 µM (inactive) | 61.1 µM (inactive) | > 100 µM (inactive) | 36.3 µM (inactive)
N=C(N)NS(=O)(=O)c1ccc(NNc2c3ccccc3nc3ccccc23)cc1 | 10.4 µM (inactive) | 12.6 µM (inactive) | 0.596 µM (active) | 6.87 µM (inactive) | 26.4 µM (inactive) | 2.96 µM (inactive) | 3.86 µM (inactive) | 14.3 µM (inactive) | 12.4 µM (inactive) | 9.1 µM (inactive) | 4.04 µM (inactive) | 8.34 µM (inactive) | 15.8 µM (inactive) | 23.9 µM (inactive) | 5.97 µM (inactive) | 1.18 µM (inactive) |  | 17.6 µM (inactive) | 1.08 µM (active)
CC1=NN(c2ccc(S(=O)(=O)O)cc2)C2(C1)C(Cl)C(=O)N2c1nc2ccccc2s1 (centres undefined) | > 100 µM (inactive) | > 100 µM (inactive) | > 100 µM (inactive) | 91.2 µM (inactive) | > 100 µM (inactive) | > 100 µM (inactive) | > 100 µM (inactive) |  | > 100 µM (inactive) | > 100 µM (inactive) | 68.4 µM (inactive) | > 100 µM (inactive) | > 100 µM (inactive) | > 100 µM (inactive) | > 100 µM (inactive) | > 100 µM (inactive) | > 100 µM (inactive) | > 100 µM (inactive) | 21.4 µM (inactive)
C=C1C(=O)OC2C1CC(O)/C(C)=C\CCC1(C)OC21 (centres undefined) | 25.1 µM (inactive) | 29.8 µM (inactive) | 20.2 µM (inactive) | 20 µM (inactive) | 22.7 µM (inactive) | 34.6 µM (inactive) | 14.8 µM (inactive) | 34.2 µM (inactive) | 35.1 µM (inactive) | 35.5 µM (inactive) | 17.4 µM (inactive) | 29.8 µM (inactive) |  | 23.5 µM (inactive) | 20.3 µM (inactive) | 23 µM (inactive) | 43 µM (inactive) | 23.8 µM (inactive) | 
O=C(OCc1ccccc1)N1CCNCCNCCN(C(=O)OCc2ccccc2)CCNCC1 |  | 13.6 µM (inactive) | 14.1 µM (inactive) | 36.7 µM (inactive) | 50.5 µM (inactive) | 20.6 µM (inactive) | 15.7 µM (inactive) | 18.5 µM (inactive) |  | 63.4 µM (inactive) | 56.9 µM (inactive) | 14 µM (inactive) | 20 µM (inactive) | 19.1 µM (inactive) | 17.9 µM (inactive) | 60.7 µM (inactive) | 20.8 µM (inactive) | 33.3 µM (inactive) | > 100 µM (inactive)
CC(C)=CCC[C@@H](C)C1=C(O)C(=O)C(C)=C(Nc2ccccc2)C1=O | 19.8 µM (inactive) | 22.6 µM (inactive) | 28 µM (inactive) | 11.3 µM (inactive) | 4.03 µM (inactive) | 23.5 µM (inactive) |  | 26 µM (inactive) | 45.1 µM (inactive) | 16.9 µM (inactive) | 9.2 µM (inactive) | 18.1 µM (inactive) | 15.1 µM (inactive) | 31.8 µM (inactive) | 12.5 µM (inactive) | 24.7 µM (inactive) | 20 µM (inactive) | 52.4 µM (inactive) | 26.7 µM (inactive)
CC(=O)N(C)SCC(NC(=O)C(Cc1ccccc1)NC(=O)OCC1c2ccccc2-c2ccccc21)C(=O)NC(Cc1ccccc1)C(=O)NC(Cc1cn(C=O)c2ccccc12)C(=O)NC(CCCCNC(=O)OCC1c2ccccc2-c2ccccc21)C(=O)NC(C(=O)NC(CSN(C)C(C)=O)C(=O)NC(C(N)=O)C(C)O)C(C)O (centres undefined) (Fmoc-F[X31]FW(For)K(Fmoc)T[X31]T-NH2; configuration not given here) | > 100 µM (inactive) | 36.6 µM (inactive) | 76.9 µM (inactive) | > 100 µM (inactive) | > 100 µM (inactive) | 14.5 µM (inactive) | 89.7 µM (inactive) | > 100 µM (inactive) | > 100 µM (inactive) | > 100 µM (inactive) | > 100 µM (inactive) | 77.8 µM (inactive) |  | > 100 µM (inactive) | > 100 µM (inactive) | > 100 µM (inactive) |  | > 100 µM (inactive) | > 100 µM (inactive)
